According to PubChem BioAssay (NCI):
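Growth conditions: 96-well plates. Treatment: test compound, 48 hours, 5 concentrations. Analysis: linear interpolation between bracketing concentrations; unreached endpoints set to highest concentration. GI50 marks 50% less growth. At the TGI there is no net growth.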

Key:
Experiment in all cases: NCI anticancer screen, dose series, 48 h
K-562 leukemia = system: K-562 leukemia
SNB-75 CNS = system: SNB-75 CNS
HCC-2998 colon = system: HCC-2998 colon
NCI-H460 lung = system: NCI-H460 lung
SK-MEL-2 melanoma = system: SK-MEL-2 melanoma
RPMI-8226 leukemia = system: RPMI-8226 leukemia
786-0 renal = system: 786-0 renal
OVCAR-5 ovarian = system: OVCAR-5 ovarian
HS 578T breast = system: HS 578T breast
MDA-MB-435 = system: MDA-MB-435

| SMILES | GI50 (K-562 leukemia) [µM] | TGI (K-562 leukemia) [µM] | TGI (SNB-75 CNS) [µM] | TGI (HCC-2998 colon) [µM] | TGI (NCI-H460 lung) [µM] | TGI (SK-MEL-2 melanoma) [µM] | GI50 (RPMI-8226 leukemia) [µM] | TGI (RPMI-8226 leukemia) [µM] | TGI (786-0 renal) [µM] | TGI (OVCAR-5 ovarian) [µM] | TGI (HS 578T breast) [µM] | TGI (MDA-MB-435) [µM] | GI50 (SNB-75 CNS) [µM] | GI50 (NCI-H460 lung) [µM] | GI50 (HS 578T breast) [µM] | GI50 (MDA-MB-435) [µM] | GI50 (SK-MEL-2 melanoma) [µM] | GI50 (786-0 renal) [µM] | GI50 (OVCAR-5 ovarian) [µM] | GI50 (HCC-2998 colon) [µM] |
| --- | --- | --- | --- | --- | --- | --- | --- | --- | --- | --- | --- | --- | --- | --- | --- | --- | --- | --- | --- | --- |
| O=C(/C=C\c1ccc(Cl)c(Cl)c1)c1ccc(Cl)cc1Cl | 1.61 | 26 | 46.8 | 58.6 | 54.8 | 41.9 | 2.35 | 41.4 | 39.6 |  |  |  |  |  |  |  |  |  |  |  |
| NS(=O)(=O)c1cc(Br)c(N=Nc2ccc(O)c3ncccc23)c(Br)c1 |  | > 100 | 73.7 |  | > 100 | > 100 |  | > 100 | > 100 | > 100 | 78.5 | > 100 |  |  |  |  |  |  |  |  |
| Cc1cccc(NC(=O)Cn2cnc3sc(C(=O)OC(C)C)c(C)c3c2=O)c1 | > 50 | > 50 | 39.5 |  | > 50 | > 50 | > 50 | > 50 | > 50 |  | > 50 | > 50 | 17.5 | 25.2 | 16.5 | > 50 | 16 | 32.9 |  |  |
| CCN1CCN(c2nc(C)cc(N(CCNc3ccnc4cc(Cl)ccc34)Cc3ccc4c(c3)OCO4)n2)CC1 | 0.913 | 2.76 | 2.9 | 3.96 | 4.7 | 3.85 | 1.31 | 3.76 | 3.08 | 13.6 |  | 3.25 | 1.35 | 1.94 |  | 1.7 | 1.98 | 1.54 | 3.58 | 2.03 |
| Clc1ccc(C(c2ccc(Cl)cc2)c2ccccn2)cc1 |  | 55.6 | > 100 | 30.9 | 34.2 | 35 |  | 84.5 | 30.6 | 29.5 |  |  |  |  |  |  |  |  |  |  |
| COc1cc(/C=C2\CN(S(=O)(=O)c3ccccc3)C/C(=C\c3cc(CN4CCCC4)c(O)c(OC)c3)C2=O)cc(CN2CCCC2)c1O |  |  | 2.71 |  |  | 5.02 | 1.55 | 5.03 | 4.32 | 3.86 | 7.22 |  | 1.27 |  | 2.52 |  | 2.03 | 1.86 | 1.91 |  |
| COc1cc2c3c(n(C)c(=O)c2cc1OC)-c1cc2c(cc1/C3=C\CCN)OCO2 | 0.0397 | 1.5 | > 59.9 |  | 1.81 | 27 | 0.061 | 0.975 | 6.21 | 3.7 |  | 9.56 | 6.05 | 0.0147 | 2.01 | 0.538 | 6.11 | 0.132 | 0.255 |  |
| CC(=O)/C(=C\c1cccc([N+](=O)[O-])c1)C(=O)Nc1ccccc1C |  | > 100 |  | > 100 | > 100 | > 100 |  | > 100 | > 100 | > 100 |  |  |  |  |  |  |  |  |  |  |
| Cc1cc(-c2ccc3nc(C4CCOCC4)n(CCOC(F)(F)F)c3c2)cn(C)c1=O | 0.507 |  | 5.97 |  |  | 15.5 | 0.13 | > 31.6 |  | > 56.4 | 0.888 | > 47.5 |  | 1.06 |  | 0.21 | 0.988 | 1.03 | 0.552 |  |
| Cn1c2ccccc2c2cc(-c3ccccc3)c3c(c21)C(=O)c1ccccc1C3=O |  | 73.1 | > 100 | > 100 |  | 43.4 |  | 25.3 | 35.7 |  |  |  |  |  |  |  |  |  |  |  |
| CCc1cc(Cc2cc(CC)c(NC(=O)C(=O)Cc3ccccn3)c(CC)c2Cl)c(Cl)c(CC)c1NC(=O)C(=O)Cc1ccccn1 |  | > 100 | > 100 | > 100 | > 100 | > 100 |  | > 100 | > 100 | > 100 |  |  |  |  |  |  |  |  |  |  |
| OCC#Cc1ccccc1C#Cc1ccccc1 | 26 | > 100 | 30.4 |  | 35.2 | 51.3 | 3 | 11.8 | 27.7 | 28.3 | 43.7 | 28.1 | 14.6 | 18.2 | 18.3 | 14.2 | 24.1 | 14.6 | 14.4 |  |
| O=c1cc(-c2ccccc2)oc2cc(OCCCOc3ccc4c(=O)cc(-c5ccccc5)oc4c3)ccc12 |  | > 100 | > 100 | > 100 | > 100 | > 100 |  | > 100 | > 100 | > 100 |  |  |  |  |  |  |  |  |  |  |
| Cc1c2c(nn1-c1ccc(S(=O)(=O)/N=C3\SCCC(=O)N3c3ccccc3)cc1)-c1ccccc1CC2 | > 100 | > 100 |  | > 100 | > 100 | > 100 |  |  | > 100 | > 100 |  | > 100 |  | > 100 |  | > 100 | > 100 | 81.7 | > 100 | > 100 |
| CCOC(=O)C(=C=C=C(c1ccccc1)c1ccccc1)C(=O)OCC |  | 28.5 | 21.9 | 61.4 | 46.5 | 36.9 |  | 44.9 | 32 | 35.5 |  |  |  |  |  |  |  |  |  |  |
| CCN1c2ccccc2C(C(SC)S(=O)(=O)c2ccc(C)cc2)c2c1[nH]c(=O)n(C)c2=O (stereo not given) |  | > 100 | 69.7 | > 100 |  | > 100 |  | > 100 | > 100 | > 100 |  |  |  |  |  |  |  |  |  |  |
| OC(c1nc2ccccc2[nH]1)C(O)C(O)C(O)c1nc2ccccc2[nH]1 (stereo not given) |  | > 100 | > 100 |  | > 100 | > 100 |  | > 100 | > 100 | > 100 | > 100 | > 100 |  |  |  |  |  |  |  |  |
| CC1=CC(O)(c2ccc(-c3ccccc3Cl)cc2)OC1=O (stereo not given) |  | > 100 | > 100 | > 100 | > 100 | > 100 |  | > 100 | > 100 | > 100 |  |  |  |  |  |  |  |  |  |  |
